Each block holds one compound with its values, some of them ahead of it. Ends that are not written are not given here. Peptide text beside a SMILES is read from it. * marks the point of attachment. Decanoyl = CCCCCCCCCC(=O)*
What was measured:
[1] = tested on: γ TP receptor; assay: Neuromuscular (electromyographic) assay; format: in vivo; conditions: i.v. or s.c. in mice, electromyography 18 hours after administration
Procedure: The neuromuscular assay is performed to determine the effect, if any, of different peptides and dosages of peptides on the γ TP receptor according to the invention. This assay is carried out as follows. Various doses of a selected peptide of this invention, prepared as described in the preceding examples, are dissolved in normal saline and injected either intravenously (i.v.) or subcutaneously (s.c.) into mice (or other selected laboratory animals). The electromyographic assay is performed according to G. Goldstein et al, J. Jeurol. and Neurosurg. Physchiat., 31:453-459 (1968) 18 hours after administration of the peptide.
Mice of either sex, weighing […], are anesthetized with 150 μl of 5% sodium pentobarbital (Abbott Laboratories, Chicago, Ill.). The nerve is stimulated with a Grass S-48 stimulator and a Grass SIV-5A stimulus isolation unit (Grass Instrument Co., Quincy, Mass.) and the electromyographic response is recorded with a Tektronix storage oscilloscope-5111 coupled to a 5A21N differential amplifier and a 5B10N time base (Tektronix, Beaverton, Oreg.).
Groups of five or more mice are used for each experiment. […] The mean, standard deviation and statistical significance of differences between experimental animals and controls are assessed by one-way analysis of variance based on ratio. […]

[2] = tested on: MOLT-4 T cell line; assay: Cyclic GMP assay, MOLT-4 cell line; format: cell-based, human; conditions: positive = cyclic GMP greater than 2 standard deviations above parallel negative control; peptide 1, 10, 100 μg/mL
Excerpt: This assay measures the ability of a peptide of this invention to bind to the cell membrane receptor of the intact MOLT-4 cell and selectively stimulate production of cyclic GMP, as does human thymopoietin.
The MOLT-4 cell line was obtained from the American Type Culture Collection of Rockville, Md. MOLT-4 cells were freshly seeded and grown for 3 days with harvesting as described in T. Audhya et al, Arch. Biochem Biophys., 234: 167-177 (1984). The cells were washed 3 times in PBS and resuspended in RPMI 1640 at a concentration of […]; cells/ml and were allowed to equilibrate at 37° C. for 30 minutes before the addition of the test pentapeptides or control peptides, in 25 μl to yield a final concentration of 1, 10, and 100 μg/mL. The incubation was allowed to proceed in a shaking water bath for 4-5 minutes and was then terminated by addition of 1 ml ice-cold TCA (10 percent in H2 O).
The cells in TCA were homogenized and sonicated to release cyclic nucleotide. The suspension was centrifuged at 3000×g for 20 minutes at 4° C. The resulting precipitate was dissolved in 0.1N NaOH to determine the protein content. […]
A threshold activity was determined for each peptide tested. […] Test results were considered positive if the level of cyclic GMP was greater than […] that determined for the parallel negative control.

[3] = tested on: CEM T cell line; assay: Cyclic GMP assay, CEM cell line; format: cell-based, human; conditions: positive = cyclic GMP greater than 2 standard deviations above parallel negative control; peptide 1, 10, 100 μg/mL
[4] = in vitro; conditions: rat, real gastrointestinal fluid or homogenate, pH 5.5
Procedure: (§1) A rat duodenum was opened and attached to a 3.5 mL diffusion cell [Crownglass, N.J.] with buffer in both chambers. The selected test peptide in phosphate buffer (pH 5.5) was applied to both the cells to a final concentration of 1 mg/mL, and samples were taken at 0, 2 and 4 hours. The aliquots were subjected to high performance liquid chromatography (HPLC) with ultraviolet detection at 220 nm. The solvent system for thymopentin was phosphate buffer and methanol.

[5] = Enzymatic stability, duodenum in diffusion cell; conditions: for intact peptide: rat duodenum, phosphate buffer pH 5.5, 1 mg/mL
Procedure: as §1

Compound: CCCCCCCCCC(=O)N[C@@H](CCCNC(=N)N)C(=O)N1CCC[C@H]1C(=O)N[C@@H](CC(=O)O)C(=O)N1CCC[C@H]1C(=O)N[C@@H](Cc1ccccc1)C(N)=O [Decanoyl-Arg-Pro-Asp-Pro-Phe-NH2] (Decanoyl-RPDPF-NH2)
thymopoietin/thymopentin-like results on the neuromuscular assay (γ) [1]: γ-positive | inducing increased cGMP levels in the human MOLT-4 T cell line (β) [2]: positive | inducing increased cGMP levels in the human CEM T cell line (α) [3]: positive

remaining at 2 h, 1 mg/mL [4]: ~100% | remaining at 4 h, 1 mg/mL [4]: ~90%
Compound: Ac-RPDPF-NH2 [Acetyl-Arg-Pro-Asp-Pro-Phe-NH2]

Compound: Ac-RPTPF-NH2 [Acetyl-Arg-Pro-Thr-Pro-Phe-NH2]
inducing increased cGMP levels in the human CEM T cell line (α) [3]: positive

Compound: Ac-RPTPY-NH2 [Acetyl-Arg-Pro-Thr-Pro-Tyr-NH2]
inducing increased cGMP levels in the human CEM T cell line (α) [3]: positive

Compound: RKDVY [TP-5, thymopentin]
intact peptide ([5]; 0 hours): 100% | intact peptide ([5]; 4 hours): negligible | remaining at 2 h, 1 mg/mL ([5]; rat, rat duodenum mounted in a diffusion cell, pH 5.5): 20%

Source: patent US5215964A, “Peptides useful in regulating the immune and nervous systems” (Immunobiology Research Institute, Inc., priority 1991, dated 1993)
